Patent US20130266636A1, “METHODS FOR BLOCKING CELL PROLIFERATION AND TREATING DISEASES AND CONDITIONS RESPONSIVE TO CELL GROWTH INHIBITION” (THE REGENTS OF THE UNIVERSITY OF CALIFORNIA, priority 2010, published 2013)
“Also recorded” adds a separate entry of the source.

Assays:
Type in all cases: cell-based
786-0 = test: NCI-60 panel growth inhibition; details: Homo sapiens, Renal Cancer, mutated RAS No, mutated BRAF No
From the text: (§1) Table 1 summarizes KG5's effect in 60 NCI cancer cell lines: the NCI-60 panel showing the half maximal growth inhibitory concentration of KG5 and the RAS and BRAF status in 60 human cancer cell lines.

A498 = test: NCI-60 panel growth inhibition; details: Homo sapiens, Renal Cancer, mutated RAS No, mutated BRAF No
From the text: as §1

BT-549 = test: NCI-60 panel growth inhibition; details: Homo sapiens, Breast Cancer, mutated RAS No, mutated BRAF No
From the text: as §1

HCT-116 = test: NCI-60 panel growth inhibition; details: Homo sapiens, Colon Cancer, mutated RAS Yes
From the text: as §1

HS 578T = test: NCI-60 panel growth inhibition; details: Homo sapiens, Breast Cancer, mutated RAS Yes, mutated BRAF No
From the text: as §1

K-562 = test: NCI-60 panel growth inhibition; details: Homo sapiens, K562; Leukemia; mutated RAS No; mutated BRAF No
From the text: as §1

KM12 = test: NCI-60 panel growth inhibition; details: Homo sapiens, Colon Cancer, mutated RAS No, mutated BRAF No
From the text: as §1

M14 = test: NCI-60 panel growth inhibition; details: Homo sapiens, Melanoma, mutated RAS No, mutated BRAF Yes
From the text: as §1

MCF7 = test: NCI-60 panel growth inhibition; details: Homo sapiens, Breast Cancer, mutated RAS No, mutated BRAF No
From the text: as §1

MDA-MB-435 = test: NCI-60 panel growth inhibition; details: Homo sapiens, Melanoma, mutated RAS No, mutated BRAF Yes
From the text: as §1

OVCAR-3 = test: NCI-60 panel growth inhibition; details: Homo sapiens, Ovarian Cancer, mutated RAS No, mutated BRAF No
From the text: as §1

OVCAR-4 = test: NCI-60 panel growth inhibition; details: Homo sapiens, Ovarian Cancer, mutated RAS No, mutated BRAF No
From the text: as §1

OVCAR-5 = test: NCI-60 panel growth inhibition; details: Homo sapiens, Ovarian Cancer, mutated RAS Yes, mutated BRAF No
From the text: as §1

OVCAR-8 = test: NCI-60 panel growth inhibition; details: Homo sapiens, Ovarian Cancer, mutated RAS No, mutated BRAF No
From the text: as §1

RXF 393 = test: NCI-60 panel growth inhibition; details: Homo sapiens, Renal Cancer, mutated RAS No, mutated BRAF No
From the text: as §1

SF-268 = test: NCI-60 panel growth inhibition; details: Homo sapiens, CNS Cancer, mutated RAS No, mutated BRAF No
From the text: as §1

SK-MEL-2 = test: NCI-60 panel growth inhibition; details: Homo sapiens, Melanoma, mutated RAS Yes, mutated BRAF No
From the text: as §1

SK-MEL-5 = test: NCI-60 panel growth inhibition; details: Homo sapiens, Melanoma, mutated RAS No, mutated BRAF Yes
From the text: as §1

SK-OV-3 = test: NCI-60 panel growth inhibition; details: Homo sapiens, Ovarian Cancer, mutated RAS No, mutated BRAF No
From the text: as §1

SN12C = test: NCI-60 panel growth inhibition; details: Homo sapiens, Renal Cancer, mutated RAS No, mutated BRAF No
From the text: as §1

SNB-75 = test: NCI-60 panel growth inhibition; details: Homo sapiens, CNS Cancer, mutated RAS No, mutated BRAF No
From the text: as §1

SR = test: NCI-60 panel growth inhibition; details: Homo sapiens, Leukemia, mutated RAS No, mutated BRAF No
From the text: as §1

SW-620 = test: NCI-60 panel growth inhibition; details: Homo sapiens, Colon Cancer, mutated RAS No, mutated BRAF No
From the text: as §1

T-47D = test: NCI-60 panel growth inhibition; details: Homo sapiens, T47D; Breast Cancer; mutated RAS Yes; mutated BRAF No
From the text: as §1

TK-10 = test: NCI-60 panel growth inhibition; details: Homo sapiens, Renal Cancer, mutated RAS No, mutated BRAF No
From the text: as §1

UACC-257 = test: NCI-60 panel growth inhibition; details: Homo sapiens, Melanoma, mutated RAS No, mutated BRAF Yes
From the text: as §1

UO-31 = test: NCI-60 panel growth inhibition; details: Homo sapiens, Renal Cancer, mutated RAS No, mutated BRAF No
From the text: as §1

CRAF = CRAF (Homo sapiens, UniProt P04049); test: Phospho-S338 CRAF immunoblot in XPA-1 cells; design: total CRAF and total MEK of lysates from XPA-1 cells treated with PD0325901, Sorafenib, L-779450, PLX4720, KG5 or KG1; endogenous in cells; host or cells: XPA-1
Protocol: FIGS. 6 and 7 illustrate immunoblot analysis of CRAF immunoprecipitated from XPA-1 cells treated with KG5 and KG38.
FIG. 13 illustrates immunoblot analysis of phospho-5338 CRAF, phospho-MEK, total CRAF and total MEK of lysates from XPA-1 cells treated with PD0325901, Sorafenib, L-779450, PLX4720, KG5 or KG1.
Immunoprecipitation and Immunoblot Analysis Cells were lysed in either NP40 lysis buffer (150 mM NaCl, 50 mM Tris Base pH 7.4, 1% NP40) or RIPA buffer (50 mM Tris pH 7.4, 100 mM NaCl, 0.1% SDS) supplemented with complete protease inhibitor mixture (Roche), 50 mM NaF and 1 mM Na3VO4 and centrifuged at 13,000×g for 10 min at 4° C. Protein concentration was determined by BCA assay. […] of protein were immunoprecipitated with […] of anti-Flag (Sigma), anti-CRAF (BD Pharmingen), anti-Plk1 (Abcam), anti-γ-Tubulin (sigma) or anti-cenpF (Santa Cruz) antibodies overnight at 4° C. followed by capture with 25 μl of protein A/G (Pierce). Beads were washed five times, eluted in boiling Laemmli buffer, resolved on 10% SDS-PAGE and immunoblotting was performed with anti-Plk1 antibody (Abcam), anti-CRAF antibody (BD Pharmingen), anti-Aurora A (Abcam), anti-phospho-S338 CRAF (Cell Signaling), anti-phospho-T210 Plk1 or anti-phospho-T288 Aurora A (Cell signaling) diluted 1:1000. For immunoblot analysis, […] of protein was boiled in […]

Sequence of CRAF (P04049 whole entry): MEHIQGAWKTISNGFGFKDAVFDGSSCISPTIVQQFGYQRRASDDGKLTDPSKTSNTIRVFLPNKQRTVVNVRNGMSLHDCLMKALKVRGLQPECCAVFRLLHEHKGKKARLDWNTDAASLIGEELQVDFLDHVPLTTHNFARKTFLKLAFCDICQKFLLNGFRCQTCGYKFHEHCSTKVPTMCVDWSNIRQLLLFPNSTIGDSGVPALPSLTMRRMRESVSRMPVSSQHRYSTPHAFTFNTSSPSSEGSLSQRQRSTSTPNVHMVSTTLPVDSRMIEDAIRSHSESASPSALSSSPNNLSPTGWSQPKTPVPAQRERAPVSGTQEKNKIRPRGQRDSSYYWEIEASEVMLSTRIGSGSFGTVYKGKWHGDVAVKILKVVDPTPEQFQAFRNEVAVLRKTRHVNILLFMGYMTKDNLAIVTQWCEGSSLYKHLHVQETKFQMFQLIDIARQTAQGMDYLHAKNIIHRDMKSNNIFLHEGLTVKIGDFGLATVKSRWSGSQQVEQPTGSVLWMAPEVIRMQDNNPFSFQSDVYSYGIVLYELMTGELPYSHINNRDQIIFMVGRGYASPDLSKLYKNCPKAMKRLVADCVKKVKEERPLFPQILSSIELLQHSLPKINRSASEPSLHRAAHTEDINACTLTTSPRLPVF

Q: With `CSc1nc(N)cc(Oc2ccc(-c3nnc(Nc4cccc(C(F)(F)F)c4)[nH]3)cc2)n1` [KG5] as the compound, how does the GI50 (786-0) read?
A: The GI50 was 490 nM.

Q: What about the GI50 (A498) of the same compound?
A: Its GI50 is 468 nM.

Q: What about the GI50 (BT-549) of the same compound?
A: Its GI50 is 708 nM.

Q: And the GI50 (HCT-116)?
A: The GI50 was 457 nM.

Q: And the GI50 (HS 578T)?
A: Its GI50 is 437 nM.

Q: And the GI50 (K-562)?
A: Its GI50 is 513 nM.

Q: What about the GI50 (KM12) of the same compound?
A: The GI50 was 468 nM.

Q: And the GI50 (M14)?
A: Its GI50 is 347 nM.

Q: What about the GI50 (MCF7) of the same compound?
A: Its GI50 is 355 nM.

Q: What about the GI50 (MDA-MB-435) of the same compound?
A: Its GI50 is 195 nM.

Q: What about the GI50 (OVCAR-3) of the same compound?
A: The GI50 was 251 nM.

Q: What about the GI50 (OVCAR-4) of the same compound?
A: Its GI50 is 575 nM.

Q: What about the GI50 (OVCAR-5) of the same compound?
A: Its GI50 is 1550 nM.

Q: And the GI50 (OVCAR-8)?
A: Its GI50 is 479 nM.

Q: What about the GI50 (RXF 393) of the same compound?
A: The GI50 was 166 nM.

Q: And the GI50 (SF-268)?
A: The GI50 was 912 nM.

Q: And the GI50 (SK-MEL-2)?
A: Its GI50 is 589 nM.

Q: What about the GI50 (SK-MEL-5) of the same compound?
A: The GI50 was 389 nM.

Q: What about the GI50 (SK-OV-3) of the same compound?
A: The GI50 was 562 nM.

Q: And the GI50 (SN12C)?
A: The GI50 was 912 nM.

Q: What about the GI50 (SNB-75) of the same compound?
A: The GI50 was 245 nM.

Q: And the GI50 (SR)?
A: Its GI50 is 398 nM.

Q: And the GI50 (SW-620)?
A: The GI50 was 617 nM.

Q: What about the GI50 (T-47D) of the same compound?
A: The GI50 was 347 nM.

Q: And the GI50 (TK-10)?
A: Its GI50 is 692 nM.

Q: What about the GI50 (UACC-257) of the same compound?
A: Its GI50 is 407 nM.

Q: And the GI50 (UO-31)?
A: Its GI50 is 513 nM.

Q: And the “serine 338 phosphorylation on CRAF” value (CRAF)?
A: Its value is “prevent; also recorded: inhibits phosphorylation of CRAF on serine 338”.
